Results from US10167292B2, “Benzodiazepines as bromodomain inhibitors” (Catalyst Therapeutics Pty Ltd, priority 2015, dated 2019).
pIC50: −log10 of the molar value.

What was measured:
BRD-3 (Domain 1) = BRD-3 (Domain 1) (Homo sapiens (Human), UniProt Q15059); assay: AlphaScreen BRD binding assay, BRD-3 (Domain 1); settings: acetyl-histone H4 peptide 2.5 nM, protein 80 nM
Description: (§1) Biological Characterization Assay Conditions Binding Assay
BRD binding and inhibition was assessed by measuring the interaction of biotinylated acetyl-histone H4 peptide (Anaspec #64989) with the BRD target protein utilising AlphaScreen® technology (Perkin Elmer). In a white 384-well low volume plate (Greiner #784076), 100 nL of compound series in DMSO (0.5% final concentration) was added to the BRD target protein (80 nM final). After 30 min incubation at RT, H4 peptide was added to a final concentration of 2.5 nM. AlphaScreen streptavidin donor beads and AlphaScreen nickel chelate acceptor beads were added to a final concentration of 10 ug/mL each and allowed to incubate in a darkened environment for 1 h at RT. Plates were read on an EnVision plate reader (Perkin Elmer) and IC50's calculated using a four parameter non-linear curve fit.
These conditions are identical for all BRDs screened except BRD2D2 which uses 160 nM protein and 1.25 nM peptide.

HL-60 = assay: Cell proliferation assay (CellTiter-Glo), HL-60; type: cell-based; settings: Homo sapiens, HL-60 cells, 72 h
Description: (§2) The cells were prepared in the required fashion (suspension or adherent). The cells were initially washed once in the culture medium that they would be finally treated in. Following this 10 ml of the test medium was added and the cells. The mixture was pipetted gently several times.
(§3) The cells were counted and then the volume was spun down to the volume necessary for the total number of cells needed. The cells were then resuspended in the appropriate test medium to the desired concentration. In general, the final concentration of non-adherent cells was 2×10^5 cells/ml i.e. 10,000 cells per 50 μ1. Once the desired concentration had been reached, 50 µl of the cells were added to the appropriate wells and the cells were incubated for 72 h at 37° C.
(§4) CellTiter-Glo Luminescent Assay (Kit G7571—See Promega's Instruction Manual for Additional Details):
(§5) Both reagents were pre-warmed to RT. The buffer was thawed in a 37° C. water bath until it had just completely thawed. It was then left on a bench at RT for at least 30 min.
(§6) Following this the substrate and buffer were mixed together. To ensure that the substrate was dissolved, the mixture was inverted several times.
(§7) The cell culture plates were removed from the incubator and were then allowed to adjust to RT for at least 30 min.
(§8) Afterwards 40 μL of the reagent was added to 100 μL of the culture medium. […] The plates were then incubated for 10 min on the bench. The luminescence could then be read using a luminescence plate reader.

MV4; 11 = assay: Cell proliferation assay (CellTiter-Glo), MV4;11; type: cell-based; settings: Homo sapiens, MV4;11 cells, 72 h
Description: as §2, §3, §4, §5, §6, §7, §8

BRD-4 (Domain 1) = BRD-4 (Domain 1) (Homo sapiens (Human), UniProt O60885); assay: AlphaScreen BRD binding assay, BRD-4 (Domain 1); settings: acetyl-histone H4 peptide 2.5 nM, protein 80 nM
Description: as §1
(§9) AlphaScreen streptavidin donor beads and AlphaScreen nickel chelate acceptor beads were added to a final concentration of 10 ug/mL each and allowed to incubate in a darkened environment for 1 h at RT. Plates were read on an EnVision plate reader (Perkin Elmer) and IC50's calculated using a four parameter non-linear curve fit.

BRD-4 (Domain 2) = BRD-4 (Domain 2) (Homo sapiens (Human), UniProt O60885); assay: AlphaScreen BRD binding assay, BRD-4 (Domain 2); settings: acetyl-histone H4 peptide 2.5 nM, protein 80 nM
Description: as §1, §9

BRD-2 (Domain 1) = BRD-2 (Domain 1) (Homo sapiens (Human), UniProt P25440); assay: AlphaScreen BRD binding assay, BRD-2 (Domain 1); settings: acetyl-histone H4 peptide 2.5 nM, protein 80 nM
Description: as §1, §9

BRD-2 (Domain 2) = BRD-2 (Domain 2) (Homo sapiens (Human), UniProt P25440); assay: AlphaScreen BRD binding assay, BRD-2 (Domain 2); settings: 160 nM protein and 1.25 nM peptide
Description: as §1, §9

Chain of BRD-2 (Domain 1) (P25440 74-180): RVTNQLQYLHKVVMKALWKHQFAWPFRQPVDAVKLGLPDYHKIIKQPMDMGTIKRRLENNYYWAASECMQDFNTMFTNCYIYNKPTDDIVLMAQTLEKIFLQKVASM
Chain of BRD-2 (Domain 2) (P25440 344-453): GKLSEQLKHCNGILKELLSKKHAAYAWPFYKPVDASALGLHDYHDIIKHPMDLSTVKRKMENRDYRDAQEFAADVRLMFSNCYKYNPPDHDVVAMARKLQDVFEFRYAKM
Chain of BRD-3 (Domain 1) (Q15059 34-140): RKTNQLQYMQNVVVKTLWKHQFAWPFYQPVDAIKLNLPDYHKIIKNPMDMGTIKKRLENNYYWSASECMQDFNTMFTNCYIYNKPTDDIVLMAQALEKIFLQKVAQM

pIC50 (BRD-4 (Domain 1))	pIC50 (BRD-4 (Domain 2))	pIC50 (BRD-2 (Domain 1))	pIC50 (BRD-2 (Domain 2))	SMILES	pIC50 (BRD-3 (Domain 1))	pIC50 (HL-60)	pIC50 (MV4; 11)
				Cc1nnn2c1-c1ccc(C(=O)NC(C)c3ccccc3)cc1N(c1ccc(Cl)cc1)CC2 (stereo in doubt) [Example 35, 7-(4-chlorophenyl)-1-methyl-N—((R)-1-phenylethyl)-6,7-dihydro-5H-benzo[f][1,2,3]triazolo[1,5-d][1,4]diazepine-9-carboxamide]	> 7.00	> 6.00	> 6.00
				Cc1nnn2c1-c1ccc(C(=O)NC(C)c3ccccc3)cc1N(c1ccc(Cl)cc1)CC2 (stereo in doubt) [Example 39, 7-(4-chlorophenyl)-1-methyl-N—((S)-1-phenylethyl)-6,7-dihydro-5H-benzo[f][1,2,3]triazolo[1,5-d][1,4]diazepine-9-carboxamide]	> 7.00	> 6.00	> 6.00
				Cc1nnn2c1-c1ccc(C(=O)Nc3ccccc3)cc1N(c1ccc(Cl)cc1)CC2 [Example 36, 7-(4-chlorophenyl)-1-methyl-N-phenyl-6,7-dihydro-5H-benzo[f][1,2,3]triazolo[1,5-d][1,4]diazepine-9-carboxamide]	> 7.00	> 6.00	> 6.00
> 7.00	> 7.00	> 7.00	> 7.00	Cc1nnn2c1-c1ccc(C(=O)NS(=O)(=O)c3ccccc3)cc1N(c1ccc(Cl)cc1)CC2 [Example 40, 7-(4-chlorophenyl)-1-methyl-N-(phenylsulfonyl)-6,7-dihydro-5H-benzo[f][1,2,3]triazolo[1,5-d][1,4]diazepine-9-carboxamide]	> 7.00	< 5.30	5.30 to 6.00
> 7.00	> 7.00	> 7.00	> 7.00	Cc1nnn2c1-c1ccc(C(=O)N[C@@H](C)c3ccc(F)cc3)cc1N(c1ccccc1)CC2 [Example 43]		> 6.00	> 6.00
> 7.00	> 7.00	> 7.00	> 7.00	Cc1nnn2c1-c1ccc(C(=O)NOCCO)cc1N(c1ccc(Cl)cc1)CC2 [Example 45, 7-(4-Chlorophenyl)-N-(2-hydroxyethoxy)-1-methyl-6,7-dihydro-5H-benzo[f][1,2,3]triazolo[1,5-d][1,4]diazepine-9-carboxamide]		> 6.00	> 6.00
> 7.00	> 7.00	> 7.00	> 7.00	CONC(=O)c1ccc2c(c1)N(c1ccc(Cl)cc1)CCn1nnc(C)c1-2 [Example 46, 7-(4-chlorophenyl)-N-methoxy-1-methyl-6,7-dihydro-5H-benzo[f][1,2,3]triazolo[1,5-d][1,4]diazepine-9-carboxamide]		> 6.00	> 6.00

SMILES	pIC50 (BRD-4 (Domain 1))	pIC50 (BRD-4 (Domain 2))	pIC50 (BRD-2 (Domain 1))	pIC50 (BRD-2 (Domain 2))	pIC50 (BRD-3 (Domain 1))	pIC50 (HL-60)	pIC50 (MV4; 11)
Cc1ccc(-c2ccc3c(c2)N(c2ccc(Cl)cc2)CCn2nnc(C)c2-3)cn1 [Example 7, 7-(4-Chlorophenyl)-1-methyl-9-(6-methylpyridin-3-yl)-6,7-dihydro-5H-benzo[f][1,2,3]triazolo[1,5-d][1,4]diazepine]	> 7.00	> 7.00			> 7.00	> 6.00	> 6.00
Cc1nnn2c1-c1ccc(-c3ccc(N)nc3)cc1N(c1ccc(Cl)cc1)CC2 [Example 8, 5-(7-(4-Chlorophenyl)-1-methyl-6,7-dihydro-5H-benzo[f][1,2,3]triazolo[1,5-d][1,4]diazepin-9-yl)pyridin-2-amine]	> 7.00	> 7.00			> 7.00	> 6.00	> 6.00
Cc1nnn2c1-c1ccc(-c3cc[nH]n3)cc1N(c1ccc(Cl)cc1)CC2 [Example 10, 7-(4-Chlorophenyl)-1-methyl-9-(1H-pyrazol-3-yl)-6,7-dihydro-5H-benzo[f][1,2,3]triazolo[1,5-d][1,4]diazepine]	> 7.00	> 7.00			> 7.00	> 6.00	> 6.00
Cc1nnn2c1-c1ccc(C(=O)O)cc1N(c1ccc(Cl)cc1)CC2 [Example 32, 7-(4-chlorophenyl)-1-methyl-5,6-dihydrotriazolo[1,5-d][1,4]benzodiazepine-9-carboxylic acid]			6.00 to 7.00	> 7.00	> 7.00	< 5.30	> 6.00
